Where a name gives a salt, the structure may show the parent alone. Read-outs that look alike come from different tables or passages of the source. Marks after values point to notes of the source that are not given here.
Key:
sarcoma 180 = assay: In vivo antitumor assay on Sarcoma 180 (S180) in mice; conditions: for inhibition in vivo at 10 mg/kg: read-out: Inhibition rate %, 10 mg/kg, iv, d 1, 4
[1] = tested on: human non-small cell lung cancer cell line A-549; assay: In vitro cytotoxicity assay, Sulforhodamine B (SRB), A-549; assay type: cell-based
[2] = tested on: human cervical carcinoma cell line Hela; assay: In vitro cytotoxicity assay, Sulforhodamine B (SRB), Hela; assay type: cell-based
[3] = Homo sapiens, A549, 72 h, read-out: A549 (IC50, nM)
[4] = Homo sapiens, HeLa, 72 h, read-out: Hela (IC50, nM)

Compound | IC50 [1, 3] [nM] | IC50 [2, 4] [nM] | other results
CC[C@]12C=CCN3CC[C@@]4(c5cc([C@@]6(C(=O)OC)C[C@@H]7C[C@@H](C(C)(F)F)CN(CCc8c6[nH]c6ccccc86)C7)c(OC)cc5N(C)[C@H]4C(O)(CNC(=O)OC)[C@@H]1OC(C)=O)[C@@H]32 (some centres unmarked) [BM79] | > 1000 | > 1000 | Average weight (g) At sacrifice (sarcoma 180; 20 mg/kg, iv, d 1, 4): 33.0 g; Tumor Weight (g) X ± SD (sarcoma 180; 20 mg/kg, iv, d 1, 4): 1.47 ± 0.15 g; Average weight (g) At sacrifice (sarcoma 180; 40 mg/kg, iv, d 1, 4): 29.5 g; Tumor Weight (g) X ± SD (sarcoma 180; 40 mg/kg, iv, d 1, 4): 0.84 ± 0.49 g; inhibition in vivo at 20 mg/kg (sarcoma 180; Mus musculus, Sarcoma-180, iv, read-out: Inhibition rate %, 20 mg/kg, iv, d 1, 4): 8.1%; inhibition in vivo at 40 mg/kg (sarcoma 180; Mus musculus, Sarcoma-180, iv, read-out: Inhibition rate %, 40 mg/kg, iv, d 1, 4): 47.5%
CCC1=C[C@@H]2CN(CCc3c([nH]c4ccccc34)[C@@](C(=O)OC)(c3cc4c(cc3OC)N(C)[C@H]3[C@@](O)(C(=O)OC)[C@H](OC(C)=O)[C@]5(CC)C=CCN6CC[C@]43[C@@H]65)C2)C1 [Anhydrovinblastine tartrate, anhydrovinblastine tartrate, reference compound] |  |  | Average weight (g) At sacrifice (sarcoma 180; 10 mg/kg, iv, d 1, 4): 27.9 g; Inhibition rate % (sarcoma 180; 10 mg/kg, iv, d 1, 4): 69.4* %; Tumor Weight (g) X ± SD (sarcoma 180; 10 mg/kg, iv, d 1, 4): 0.49 ± 0.10 g; IC50 ([1]; SRB assay, 72 hours incubation, ditartrate of all compounds used, read-out: A549 (IC50)): 60.2 nM; IC50 ([2]; SRB assay, 72 hours incubation, ditartrate of all compounds used, read-out: Hela (IC50)): 40.2 nM
CCC1=C[C@@H]2CN(CCc3c([nH]c4ccccc34)[C@@](C(=O)OC)(c3cc4c(cc3OC)N(C)[C@H]3C(O)(CNC(=O)OCC5CC5)[C@H](OC(C)=O)[C@]5(CC)C=CCN6CC[C@]43[C@@H]65)C2)C1 (some centres unmarked) [BM57] | 60.6 | 13.2 | Average weight (g) At sacrifice (sarcoma 180; 10 mg/kg, iv, d 1, 4): 25.2 g; Tumor Weight (g) X ± SD (sarcoma 180; 10 mg/kg, iv, d 1, 4): 0.26 ± 0.07 g; inhibition in vivo at 10 mg/kg (sarcoma 180; Mus musculus, Sarcoma-180, iv): 83.8%; cell-based efficacy, inhibition of tumor cell proliferation (in words) [1]: excellent cell-based efficacy
CCC1=C[C@@H]2CN(CCc3c([nH]c4ccccc34)[C@@](C(=O)OC)(c3cc4c(cc3OC)N(C)[C@H]3C(O)(CNC(=O)C5CC5)[C@H](OC(C)=O)[C@]5(CC)C=CCN6CC[C@]43[C@@H]65)C2)C1 (some centres unmarked) [BM33] | 26.4 | 17 | Average weight (g) At sacrifice (sarcoma 180; 10 mg/kg, iv, d 1, 4): 22.2 g; Tumor Weight (g) X ± SD (sarcoma 180; 10 mg/kg, iv, d 1, 4): 0.30 ± 0.05 g; Average weight (g) At sacrifice (sarcoma 180; 20 mg/kg, iv d 1): 23.9 g; Tumor Weight (g) X ± SD (sarcoma 180; 20 mg/kg, iv d 1): 0.18 ± 0.02 g; inhibition in vivo at 10 mg/kg (sarcoma 180; Mus musculus, Sarcoma-180, iv): 81.3%; inhibition in vivo at 20 mg/kg (sarcoma 180; Mus musculus, Sarcoma-180, iv, read-out: Inhibition rate %, 20 mg/kg, iv d 1): 88.8%; cell-based efficacy, inhibition of tumor cell proliferation (in words) [1]: excellent cell-based efficacy
C=CCOCC1(O)[C@H](OC(C)=O)[C@]2(CC)C=CCN3CC[C@@]4(c5cc([C@@]6(C(=O)OC)C[C@@H]7C=C(CC)CN(CCc8c6[nH]c6ccccc86)C7)c(OC)cc5N(C)[C@@H]14)[C@@H]32 (some centres unmarked) [BM2] | 441 | 113 | 
CCC1=C[C@@H]2CN(CCc3c([nH]c4ccccc34)[C@@](C(=O)OC)(c3cc4c(cc3OC)N(C)[C@H]3C(O)(CNC(=O)Oc5ccc(OC)cc5)[C@H](OC(C)=O)[C@]5(CC)C=CCN6CC[C@]43[C@@H]65)C2)C1 (some centres unmarked) [BM65] | 344 | 159 | 
CCC1=C[C@@H]2CN(CCc3c([nH]c4ccccc34)[C@@](C(=O)OC)(c3cc4c(cc3OC)N(C)[C@H]3C(O)(CNC(C)=O)[C@H](OC(C)=O)[C@]5(CC)C=CCN6CC[C@]43[C@@H]65)C2)C1 (some centres unmarked) [BM25] | > 1000 | 477 | 
C=C(C)C(=O)NCC1(O)[C@H](OC(C)=O)[C@]2(CC)C=CCN3CC[C@@]4(c5cc([C@@]6(C(=O)OC)C[C@@H]7C=C(CC)CN(CCc8c6[nH]c6ccccc86)C7)c(OC)cc5N(C)[C@@H]14)[C@@H]32 (some centres unmarked) [BM32] | 17.9 | 12.5 | 
CCC1=C[C@@H]2CN(CCc3c([nH]c4ccccc34)[C@@](C(=O)OC)(c3cc4c(cc3OC)N(C)[C@H]3C(O)(CNC(=O)Oc5ccccc5OC)[C@H](OC(C)=O)[C@]5(CC)C=CCN6CC[C@]43[C@@H]65)C2)C1 (some centres unmarked) [BM64] | 951 | 227 | 
CCC1=C[C@@H]2CN(CCc3c([nH]c4ccccc34)[C@@](C(=O)OC)(c3cc4c(cc3OC)N(C)[C@H]3C(O)(CNC(=O)C(F)(F)F)[C@H](OC(C)=O)[C@]5(CC)C=CCN6CC[C@]43[C@@H]65)C2)C1 (some centres unmarked) [BM26] | 56.3 | 61.6 | 
CCC1=C[C@@H]2CN(CCc3c([nH]c4ccccc34)[C@@](C(=O)OC)(c3cc4c(cc3OC)N(C)[C@H]3C(O)(CNC(=O)OC5CCCC5)[C@H](OC(C)=O)[C@]5(CC)C=CCN6CC[C@]43[C@@H]65)C2)C1 (some centres unmarked) [BM59] | 170 | 79.8 | 
CCCCCOC(=O)NCC1(O)[C@H](OC(C)=O)[C@]2(CC)C=CCN3CC[C@@]4(c5cc([C@@]6(C(=O)OC)C[C@@H]7C=C(CC)CN(CCc8c6[nH]c6ccccc86)C7)c(OC)cc5N(C)[C@@H]14)[C@@H]32 (some centres unmarked) [BM56] | 332 | 78.4 | 
CCC1=C[C@@H]2CN(CCc3c([nH]c4ccccc34)[C@@](C(=O)OC)(c3cc4c(cc3OC)N(C)[C@H]3C(O)(COC(=O)Cc5ccccc5)[C@H](OC(C)=O)[C@]5(CC)C=CCN6CC[C@]43[C@@H]65)C2)C1 (some centres unmarked) [BM15] | > 1000 | 228 | 
CCC1=C[C@@H]2CN(CCc3c([nH]c4ccccc34)[C@@](C(=O)OC)(c3cc4c(cc3OC)N(C)[C@H]3C(O)(CNC(=O)OC(C)(C)C)[C@H](OC(C)=O)[C@]5(CC)C=CCN6CC[C@]43[C@@H]65)C2)C1 (some centres unmarked) [BM51] | 505 | 172 | 
CCC1=C[C@@H]2CN(CCc3c([nH]c4ccccc34)[C@@](C(=O)OC)(c3cc4c(cc3OC)N(C)[C@H]3C(O)(COC(=O)CC(C)C)[C@H](OC(C)=O)[C@]5(CC)C=CCN6CC[C@]43[C@@H]65)C2)C1 (some centres unmarked) [BM13] | > 1000 | > 1000 | 
CCC1=C[C@@H]2CN(CCc3c([nH]c4ccccc34)[C@@](C(=O)OC)(c3cc4c(cc3OC)N(C)[C@H]3C(O)(CNC(=O)c5ccc(C)cc5)[C@H](OC(C)=O)[C@]5(CC)C=CCN6CC[C@]43[C@@H]65)C2)C1 (some centres unmarked) [BM37] | 20.7 | 16 | 
CCC1=C[C@@H]2CN(CCc3c([nH]c4ccccc34)[C@@](C(=O)OC)(c3cc4c(cc3OC)N(C)[C@H]3C(O)(CNC(=O)OCc5ccc6c(c5)OCO6)[C@H](OC(C)=O)[C@]5(CC)C=CCN6CC[C@]43[C@@H]65)C2)C1 (some centres unmarked) [BM69] | 230 | 127 | 
CCC1=C[C@@H]2CN(CCc3c([nH]c4ccccc34)[C@@](C(=O)OC)(c3cc4c(cc3OC)N(C)[C@H]3C(O)(CNC(=O)c5ccccc5)[C@H](OC(C)=O)[C@]5(CC)C=CCN6CC[C@]43[C@@H]65)C2)C1 (some centres unmarked) [BM36] | 87.4 | 16.4 | 
CCC1=C[C@@H]2CN(CCc3c([nH]c4ccccc34)[C@@](C(=O)OC)(c3cc4c(cc3OC)N(C)[C@H]3C(O)(COC(=O)C(C)C)[C@H](OC(C)=O)[C@]5(CC)C=CCN6CC[C@]43[C@@H]65)C2)C1 (some centres unmarked) [BM11] | > 1000 | > 1000 | 
CCC1=C[C@@H]2CN(CCc3c([nH]c4ccccc34)[C@@](C(=O)OC)(c3cc4c(cc3OC)N(C)[C@H]3C(O)(CNC(=O)c5ccncc5)[C@H](OC(C)=O)[C@]5(CC)C=CCN6CC[C@]43C65)C2)C1 (some centres unmarked) [BM42] | 78.3 | 22.4 | 
CCC1=C[C@@H]2CN(CCc3c([nH]c4ccccc34)[C@@](C(=O)OC)(c3cc4c(cc3OC)N(C)[C@H]3C(O)(CNC(=O)Oc5ccc(F)cc5)[C@H](OC(C)=O)[C@]5(CC)C=CCN6CC[C@]43[C@@H]65)C2)C1 (some centres unmarked) [BM62] | > 1000 | 377 | 
CCC1=C[C@@H]2CN(CCc3c([nH]c4ccccc34)[C@@](C(=O)OC)(c3cc4c(cc3OC)N(C)[C@H]3C(O)(COC(=O)NCC(C)C)[C@H](OC(C)=O)[C@]5(CC)C=CCN6CC[C@]43C65)C2)C1 (some centres unmarked) [BM22] | > 1000 | > 1000 | 
CCC(=O)OCC1(O)[C@H](OC(C)=O)[C@]2(CC)C=CCN3CC[C@@]4(c5cc([C@@]6(C(=O)OC)C[C@@H]7C=C(CC)CN(CCc8c6[nH]c6ccccc86)C7)c(OC)cc5N(C)[C@@H]14)[C@@H]32 (some centres unmarked) [BM10] | 710 | 637 | 
CCC1=C[C@@H]2CN(CCc3c([nH]c4ccccc34)[C@@](C(=O)OC)(c3cc4c(cc3OC)N(C)[C@H]3C(O)(CNC(=O)c5ccc(OC)cc5)[C@H](OC(C)=O)[C@]5(CC)C=CCN6CC[C@]43C65)C2)C1 (some centres unmarked) [BM45] | 578 | 135 | 
CCC1=C[C@@H]2CN(CCc3c([nH]c4ccccc34)[C@@](C(=O)OC)(c3cc4c(cc3OC)N(C)[C@H]3C(O)(CNC(=O)OC(C)C)[C@H](OC(C)=O)[C@]5(CC)C=CCN6CC[C@]43[C@@H]65)C2)C1 (some centres unmarked) [BM50] | 162 | 26.2 | 
CCC1=C[C@@H]2CN(CCc3c([nH]c4ccccc34)[C@@](C(=O)OC)(c3cc4c(cc3OC)N(C)[C@H]3C(O)(COC(=O)C5CC5)[C@H](OC(C)=O)[C@]5(CC)C=CCN6CC[C@]43[C@@H]65)C2)C1 (some centres unmarked) [BM14] | > 1000 | > 1000 | 
CCC1=C[C@@H]2CN(CCc3c([nH]c4ccccc34)[C@@](C(=O)OC)(c3cc4c(cc3OC)N(C)[C@H]3C(O)(CNC(=O)C(C)C)[C@H](OC(C)=O)[C@]5(CC)C=CCN6CC[C@]43[C@@H]65)C2)C1 (some centres unmarked) [BM28] | 101 | 75.8 | 
